Data reported in the Deep4Chem optical property database.
Blank lines part the entries; values can stand above or below the molecule they belong to.

Assay: solvent given as SMILES

SMILES: Cc1cc(C)c(C2=C3C=CC(c4ccccc4O)=[N+]3[B-]3(c4ccccc4)Oc4ccccc4-c4ccc2n43)c(C)c1 (centres undefined)
emission maximum (in ClC(Cl)Cl): 614 nm

SMILES: O=C1/C(=C\c2ccc(N(c3ccccc3)c3ccccc3)cc2)S(=O)(=O)c2ccccc21
emission maximum (in C1CCOC1): 630 nm
emission maximum (in C1COCCO1): 600 nm
emission maximum (in CC#N): 518 nm
emission maximum (in CC(C)=O): 540 nm
emission maximum (in CCOC(C)=O): 617 nm
emission maximum (in CN(C)C=O): 520 nm
emission maximum (in CO): 597 nm
emission maximum (in CS(C)=O): 553 nm
emission maximum (in Cc1ccccc1): 587 nm
emission maximum (in ClC(Cl)Cl): 626 nm
emission maximum (in ClCCl): 631 nm

SMILES: FC(F)(F)c1c(-n2c3ccccc3c3ccccc32)c(-n2c3ccccc3c3ccccc32)c(-n2c3ccccc3c3ccccc32)c(-n2c3ccccc3c3ccccc32)c1-n1c2ccccc2c2ccccc21
emission maximum (in ClCCl): 481 nm

SMILES: CC(C)(C)c1ccc2c(c1)c1cc(C(C)(C)C)ccc1n2-c1ccc2c(c1)C(=O)c1ccc(-n3c4ccc(C(C)(C)C)cc4c4cc(C(C)(C)C)ccc43)cc1C2=O
emission maximum (in Cc1ccccc1): 602 nm
emission maximum (in c1ccc2c(c1)c1ccccc1n2-c1ccc(-c2ccc(-n3c4ccccc4c4ccccc43)cc2)cc1): 575 nm

SMILES: c1ccc(-c2nc3c(c4c2-c2ccccc2CC4)-c2ccccc2CC3)cc1
emission maximum (in C1CCOC1): 362 nm
emission maximum (in CC#N): 360 nm
emission maximum (in CCCCCC): 363 nm
emission maximum (in CCOC(C)=O): 359 nm
emission maximum (in CO): 362 nm
emission maximum (in CS(C)=O): 360 nm
emission maximum (in Cc1ccccc1): 361 nm
emission maximum (in ClCCl): 361 nm

SMILES: c1ccc(C2CCN3COc4c5ccccc5c5c6c7c(c2c3c46)C(c2ccccc2)CCN7CO5)cc1 (centres undefined)
emission maximum (in C1CCCCC1): 535 nm
emission maximum (in C1CCOC1): 583 nm
emission maximum (in C1COCCO1): 577 nm
emission maximum (in CC#N): 610 nm
emission maximum (in CC(C)=O): 603 nm
emission maximum (in CCOC(C)=O): 584 nm
emission maximum (in CCOCC): 562 nm
emission maximum (in CN(C)C=O): 612 nm
emission maximum (in CO): 598 nm
emission maximum (in CS(C)=O): 618 nm
emission maximum (in Cc1ccccc1): 565 nm
emission maximum (in ClC(Cl)Cl): 596 nm
emission maximum (in ClCCl): 600 nm

SMILES: C[Si](C)(C)c1ccc(-c2ccc(-c3ccc(-c4ccc(-c5ccc([Si](C)(C)C)s5)s4)c4nsnc34)s2)s1
emission maximum (in C1CCOC1): 656 nm

SMILES: CC(C)(C)NC(=O)c1ccc(Br)c2ccc3c4ccc(F)cc4c4cc(F)ccc4c3c12
emission maximum (in ClCCl): 394 nm

SMILES: CCCCCCOc1cc(/C=C/c2cc(OCCCCCC)c(/C=C/c3cc(OCCCCCC)c(C=O)cc3OCCCCCC)cc2OCCCCCC)c(OCCCCCC)cc1C=O
emission maximum (in ClCCl): 521 nm

SMILES: CCCCc1cc(CCCC)c2ccc3c(CCCC)cc(CCCC)c4ccc1c2c43
emission maximum (in CCCCCC): 388 nm
emission maximum (in CO): 388 nm
emission maximum (in ClCCl): 389 nm

SMILES: CCCCC1(CCCC)c2cc(C#Cc3ccc(C=C4c5ccccc5-c5ccccc54)cc3)ccc2-c2ccc(C#Cc3ccc(C=C4c5ccccc5-c5ccccc54)cc3)cc21
emission maximum (in C1CCOC1): 406 nm

SMILES: C(#Cc1cc(C#Cc2ccccc2)c(C#Cc2ccccc2)c(C#Cc2ccccc2)c1C#Cc1ccccc1)c1ccccc1
emission maximum (in ClCCl): 424 nm

SMILES: CCn1c2cc(-c3ccc(-c4cccs4)s3)ccc2c2ccc(-c3ccc(-c4cccs4)s3)cc21
emission maximum (in ClCCl): 447 nm

SMILES: CCCCc1ccc(-n2c3c(c4c2c2c(n4-c4ccc(CCCC)cc4)-c4cc(F)ccc4NB2c2ccccc2)B(c2ccccc2)Nc2ccc(F)cc2-3)cc1
emission maximum (in Cc1ccccc1): 406 nm

SMILES: O=[N+]([O-])c1ccc([N+]2=Cc3ccc4c5c(ccc4c3O[B-]2(c2ccccc2)c2ccccc2)C=[N+](c2ccc([N+](=O)[O-])cc2)[B-](c2ccccc2)(c2ccccc2)O5)cc1
emission maximum (in Cc1ccccc1): 643 nm
emission maximum (in ClCCl): 642 nm

SMILES: CCC1(CC)c2cc(N(c3ccccc3)c3ccccc3)ccc2-c2c1c1c(c3c2C(CC)(CC)c2cc(N(c4ccccc4)c4ccccc4)ccc2-3)C(CC)(CC)c2cc(N(c3ccccc3)c3ccccc3)ccc2-1
emission maximum (in C1CCOC1): 390 nm
emission maximum (in CC#N): 404 nm
emission maximum (in CC(C)=O): 395 nm
emission maximum (in CCCCCC): 382 nm
emission maximum (in Cc1ccccc1): 386 nm

SMILES: CN(C)c1ccc(/C=C/C(=O)O)cc1
emission maximum (in C1CCCCC1): 399 nm
emission maximum (in C1CCOC1): 418 nm
emission maximum (in C1COCCO1): 414 nm
emission maximum (in CC#N): 445 nm
emission maximum (in CCCCO): 439 nm
emission maximum (in CCCO): 441 nm
emission maximum (in CCOC(C)=O): 421 nm
emission maximum (in CO): 453 nm
emission maximum (in Cc1ccccc1): 413 nm
emission maximum (in O): 453 nm
emission maximum (in c1ccccc1): 416 nm

SMILES: C=CCNS(=O)(=O)c1ccc2c(c1)C(=O)/C(=C1\Sc3ccc(S(=O)(=O)NCC=C)cc3C1=O)S2
emission maximum (in CN(C)C=O): 604 nm
emission maximum (in CS(C)=O): 625 nm

SMILES: CC1=[N+]2C(=C(c3ccc(Br)cc3)c3ccc(C)n3[B-]2(F)F)C=C1c1cc2n(c1)[B-](F)(F)[N+]1=CC=CC1=C2c1c(C)cc(C)cc1C
emission maximum (in C1CCCCC1): 642 nm
emission maximum (in CCOC(C)=O): 670 nm

SMILES: Oc1ccccc1-c1nc2c3ccccc3c3ccccc3c2n1-c1ccccc1
emission maximum (in Cc1ccccc1): 369 nm

SMILES: COC1=C/C(=C\C=C2C=CN(Cc3ccc(Br)cc3)C=C2)C=CC1=O
emission maximum (in CC#N): 665 nm
emission maximum (in CC(C)=O): 670 nm
emission maximum (in CC(C)CO): 642 nm
emission maximum (in CC(C)O): 641 nm
emission maximum (in CCC#N): 665 nm
emission maximum (in CCCCCCO): 645 nm
emission maximum (in CCCCCO): 643 nm
emission maximum (in CCCCO): 640 nm
emission maximum (in CCCO): 639 nm
emission maximum (in CCO): 638 nm
emission maximum (in CN(C)C=O): 682 nm
emission maximum (in CN(C)P(=O)(N(C)C)N(C)C): 670 nm
emission maximum (in CO): 636 nm
emission maximum (in CS(C)=O): 669 nm

SMILES: O=Cc1cc(C=O)c2ccc3c(N4CCCCC4)cc(N4CCCCC4)c4ccc1c2c43
emission maximum (in C1COCCO1): 585 nm
emission maximum (in CC#N): 602 nm
emission maximum (in CC(C)=O): 598 nm
emission maximum (in CCCCCC): 557 nm
emission maximum (in CCO): 609 nm
emission maximum (in CCOC(C)=O): 587 nm
emission maximum (in CO): 613 nm
emission maximum (in CS(C)=O): 609 nm
emission maximum (in Cc1ccccc1): 582 nm
emission maximum (in ClCCl): 602 nm

SMILES: CN(C)c1ccc(/C=C2\CCCC2=O)cc1
emission maximum (in CC#N): 488 nm
emission maximum (in CC(C)=O): 474 nm
emission maximum (in CC(C)O): 472 nm
emission maximum (in CCCCCC): 405 nm
emission maximum (in CCCCO): 479 nm
emission maximum (in CCCO): 479 nm
emission maximum (in CCO): 480 nm
emission maximum (in CCOC(C)=O): 448 nm
emission maximum (in CCOCC): 420 nm
emission maximum (in CN(C)C=O): 504 nm
emission maximum (in CO): 488 nm
emission maximum (in CS(C)=O): 493 nm
emission maximum (in Cc1ccccc1): 424 nm
emission maximum (in ClC(Cl)(Cl)Cl): 431 nm
emission maximum (in ClC(Cl)Cl): 469 nm
emission maximum (in ClCCl): 472 nm
emission maximum (in S=C=S): 422 nm
emission maximum (in c1ccccc1): 435 nm
emission maximum (in c1ccncc1): 480 nm

Further lines, results first:

emission maximum (in C1CCCCC1): 445 nm
emission maximum (in C1CCOC1): 508 nm
emission maximum (in CC#N): 559 nm
emission maximum (in CS(C)=O): 563 nm
emission maximum (in ClCCl): 528 nm
SMILES: c1ccc(N(c2ccccc2)c2ccc(-c3ncnc4ccccc34)cc2)cc1

emission maximum (in C1CCCCC1): 420 nm
SMILES: Cc1cc(C)c(B2c3cc(C(C)(C)C)ccc3-c3cc4ccccc4c4cc(C(C)(C)C)cc2c34)c(C)c1

emission maximum (in O): 432 nm
SMILES: O=C(O)CCCCCn1c2ccccc2c(=O)c2cc(Br)ccc21

emission maximum (in O): 590 nm
SMILES: CC[n+]1c(-c2ccccc2)c2cc(N)ccc2c2ccc(NC(N)=[NH2+])cc21

emission maximum (in C1CCOC1): 512 nm
emission maximum (in CC#N): 542 nm
emission maximum (in CCO): 525 nm
emission maximum (in CS(C)=O): 547 nm
SMILES: CCOC(=O)c1ccccc1-c1c2ccc(=O)cc-2oc2cc(OC(=O)[C@H](CO[Si](C)(C)C(C)(C)C)NC(=O)OC(C)(C)C)ccc12

emission maximum (in O): 400 nm
SMILES: C[NH+](C)c1c2ccccc2cc2ccccc12

emission maximum (in C1CCCCC1): 424 nm
emission maximum (in CC#N): 568 nm
emission maximum (in CC(C)O): 580.16 nm
emission maximum (in CO): 622 nm
emission maximum (in CS(C)=O): 563.56 nm
emission maximum (in ClC(Cl)Cl): 505 nm
emission maximum (in c1ccccc1): 472.87 nm
SMILES: CC(=O)c1ccc(-c2nc3ccc(N(C)C)c(Br)c3s2)cc1

emission maximum (in CC1CCCCC1): 470 nm
emission maximum (in CC#N): 380 nm
emission maximum (in CO): 365 nm
SMILES: COC(=O)C(NC(=O)OC(C)(C)C)c1ccc2oc(-c3ccc(O)cc3O)nc2c1 (centres undefined)

emission maximum (in CCO): 464 nm
emission maximum (in ClC(Cl)Cl): 450 nm
SMILES: COc1ccc2c(-c3nc(-c4cccc(C)c4)no3)cc(=O)oc2c1

emission maximum (in CCO): 510 nm
SMILES: CN(C)c1ccc(-c2ccc(C#N)s2)s1

emission maximum (in C1COCCO1): 493 nm
SMILES: COC(=O)c1ccc(/C=C2\C=C(c3ccc([N+](=O)[O-])cc3)OC2=O)cc1

emission maximum (in ClC(Cl)Cl): 508 nm
SMILES: CN1CCCc2cc(C3=Cc4cccc[n+]4[B-](F)(F)O3)ccc21

emission maximum (in ClCCl): 441 nm
SMILES: CCN(CC)c1ccc2c(c1)oc(=O)c1cnc3c(cnn3-c3ccccc3)c12

emission maximum (in CC#N): 644 nm
emission maximum (in CO): 640 nm
emission maximum (in ClCCl): 638 nm
emission maximum (in O): 641 nm
SMILES: CN(C)c1ccc2c3c(c(=O)oc2c1)C=c1cc2c(cc1O3)=[N+](CCC(=O)O)CCC2

emission maximum (in O): 426 nm
SMILES: O=S(=O)([O-])c1cccc2c(O)cccc12

emission maximum (in ClC(Cl)Cl): 491 nm
SMILES: Cc1cc(C2=Cc3cccc[n+]3[B-](F)(F)O2)ccc1N(C)C

emission maximum (in c1ccccc1): 500 nm
SMILES: CN(C)c1ccc2nc(-c3ccccc3)c(=O)oc2c1

emission maximum (in CS(C)=O): 534 nm
emission maximum (in ClCCl): 498 nm
SMILES: Nc1ccc2c(c1)oc(=O)c1c(=O)oc3ccccc3c12

emission maximum (in CC#N): 538 nm
emission maximum (in CCCCCC): 500 nm
emission maximum (in CO): 548 nm
emission maximum (in c1ccccc1): 514 nm
SMILES: O=c1oc2cc3ccccc3cc2nc1-c1ccccc1

emission maximum (in C1CCCCC1): 380 nm
emission maximum (in CO): 380 nm
SMILES: C(=C\c1nc2ccccc2o1)/c1ccccc1

emission maximum (in CC#N): 340 nm
emission maximum (in CCCCCC): 332 nm
emission maximum (in CCO): 339 nm
SMILES: c1ccc2c(c1)[nH]c1ccccc12

emission maximum (in CC#N): 478 nm
emission maximum (in CO): 496 nm
emission maximum (in ClCCl): 471 nm
SMILES: COc1cccc(-c2[nH]c(=O)n3c2-c2ccccc2C3=O)c1O

emission maximum (in C1CCOC1): 433 nm
SMILES: CCCCCOc1cc2oc(=O)c3c4occc4c4ccc5cccc6c(c1)c2c3c4c56

emission maximum (in C1CCOC1): 345 nm
SMILES: C1=C(c2ccccc2)C(c2ccccc2)=CC1c1ccccc1
